This note sets out measurements from ChEMBL document CHEMBL2073953, “The anthelminthic agent albendazole does not interact with p-glycoprotein” (Drug Metab Dispos, 2002).

For series [1], the target named is P-glycoprotein 1 and 3 (MDR1a/MDR1b) (Mus musculus, UniProt P21447+P06795). Description: TP_TRANSPORTER: tissue distribution in mdr1a/1b(-/-) mouse. Type of series: functional, organism-based. Conditions: in vivo.
For series [2], the target named is T1, ATP-dependent translocase ABCB1 (Homo sapiens, UniProt P08183). Description: TP_TRANSPORTER: inhibition of Digoxin transepithelial transport (basal to apical) (Digoxin: 5 uM, Albendazole: 100 uM) in MDR1-expressing LLC-PK1 cells. Type of series: functional, cell-based. Conditions: pig, llc-pk1, 100 µM.
T1 sequence (P08183 whole entry): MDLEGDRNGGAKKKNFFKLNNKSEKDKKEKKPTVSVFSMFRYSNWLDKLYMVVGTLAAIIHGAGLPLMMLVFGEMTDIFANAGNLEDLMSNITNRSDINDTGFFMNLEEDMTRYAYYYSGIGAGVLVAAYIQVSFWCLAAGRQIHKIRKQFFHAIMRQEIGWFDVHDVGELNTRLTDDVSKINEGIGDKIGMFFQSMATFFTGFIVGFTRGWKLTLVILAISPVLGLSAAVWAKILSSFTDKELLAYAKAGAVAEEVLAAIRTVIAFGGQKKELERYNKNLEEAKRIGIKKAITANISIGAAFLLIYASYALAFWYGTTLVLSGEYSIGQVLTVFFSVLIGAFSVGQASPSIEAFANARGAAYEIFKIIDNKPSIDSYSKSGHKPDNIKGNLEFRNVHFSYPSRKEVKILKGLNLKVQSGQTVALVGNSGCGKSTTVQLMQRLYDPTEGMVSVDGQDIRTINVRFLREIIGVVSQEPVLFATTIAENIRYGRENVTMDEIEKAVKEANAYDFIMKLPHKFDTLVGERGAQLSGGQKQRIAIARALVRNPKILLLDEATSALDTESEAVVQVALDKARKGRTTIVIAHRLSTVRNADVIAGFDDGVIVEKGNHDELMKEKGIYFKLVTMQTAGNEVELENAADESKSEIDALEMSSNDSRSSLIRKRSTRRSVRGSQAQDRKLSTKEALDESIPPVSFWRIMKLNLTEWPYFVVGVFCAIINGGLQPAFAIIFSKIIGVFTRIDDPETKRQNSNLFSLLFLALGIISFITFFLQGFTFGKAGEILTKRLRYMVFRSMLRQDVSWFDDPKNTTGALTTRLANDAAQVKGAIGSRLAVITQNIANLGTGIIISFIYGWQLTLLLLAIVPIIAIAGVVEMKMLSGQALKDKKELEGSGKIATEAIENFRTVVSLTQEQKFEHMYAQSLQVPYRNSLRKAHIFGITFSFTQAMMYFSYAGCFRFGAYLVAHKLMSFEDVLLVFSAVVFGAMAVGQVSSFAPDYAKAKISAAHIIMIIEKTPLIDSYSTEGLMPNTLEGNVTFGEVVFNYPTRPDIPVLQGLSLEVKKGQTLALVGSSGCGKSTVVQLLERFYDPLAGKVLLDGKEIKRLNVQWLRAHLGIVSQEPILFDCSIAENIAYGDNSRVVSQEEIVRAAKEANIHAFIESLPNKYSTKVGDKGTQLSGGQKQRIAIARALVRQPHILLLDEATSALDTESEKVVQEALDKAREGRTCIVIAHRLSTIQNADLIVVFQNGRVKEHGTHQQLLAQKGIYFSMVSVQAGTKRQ
Series [3] deals with T1, ATP-dependent translocase ABCB1. Description: TP_TRANSPORTER: transepithelial transport (basal to apical) in MDR1-expressing LLC-PK1 cells. Type of series: functional, cell-based. Conditions: pig.

Regarding `CCCSc1ccc2nc(NC(=O)OC)[nH]c2c1` [ALBENDAZOLE], the Activity result in series [1] is “is not a substrate [-]”; in series [2], “is not an inhibitor [-]”; in series [3], “is not a substrate [-]”.
